These are literature values, as cited in patent publication US7220858B2, “Synthesis of hydrazine and chlorinated derivatives of bicyclic pyridazines” (Barbeau Pharma, Inc., priority 2003, dated 2007).

The conditions of data set [1]: in the presence of oxygen and metal ions such as Cu+2, Fe+2, and Fe+3.

Like-named read-outs stand apart in the source and are kept apart here.

For `NNc1nncc2ccccc12` [Hydralazine, 1-hydrazinophthalazine], in data set [1], the oxidation entry is “oxidizes rapidly”. Also, in the data set on vascular smooth muscle (given intravenously), the onset of action was 10 to 20 min. The metabolism and excretion result in the data set with vascular smooth muscle (in the body) is listed as “extensively metabolized in the body to products that are excreted predominantly in the urine”. Also, in the data set with vascular smooth muscle (in vivo), the duration of action is 3 to 4 h, the onset of action is 10 to 30 min and the “time to maximum hypotensive effect” value is 10 to 80 min.
